US11932628B2, “Selective small molecule peptidomimetic melanocortin ligands” (REGENTS OF THE UNIVERSITY OF MINNESOTA, priority 2021, dated 2024)
Read-outs that look alike come from different tables or passages of the source.

What was measured:
mMC1R = mMC1R (Mus musculus, UniProt Q01727); experiment: cAMP based functional bioassay (CRE/β-galactosidase reporter), agonist activity at mMC1R; conditions: for mMC1R Activity @ 10 μM (class) / mMC1R Activity @ 10 μM (relative activity, percent): reported where receptor not activated to full activity
Experimental: (§1) The compounds were evaluated using a whole cell assay.
(§2) Compounds were dissolved in DMSO at a stock concentration of 10^−2 M and stored at −20° C. until assayed. HEK-293 cells stably expressing the selected melanocortin receptors were transiently transfected with 4 μg of CRE/β-galactosidase reporter gene. Briefly, 5000-15000 post transfection cells were plated into collagen treated 96-well plates (Nunc) and incubated overnight. […] The assay media was aspirated, and 50 μL of lysis buffer (250 mM Tris-HCl pH=8.0 and 0.1% Triton X-100) was added. The plates were stored at −80° C. overnight. The plates containing the cell lysates were thawed the following day. Aliquots of 10 μL were taken from each well and transferred to another 96-well plate for relative protein determination. To the cell lysate plates, 40 μL of phosphate-buffered saline with 0.5% BSA was added to each well. Subsequently, 150 μL of substrate buffer (60 mM sodium phosphate, 1 mM MgCl2, 10 mM KCl, 5 mM β-mercaptoethanol, 2 mg/mL ONPG) was added to each well and the plates were incubated at 37° C. The sample absorbance, OD405, was measured using a 96-well plate reader (Molecular Devices). The relative protein was determined by adding 200 μL of 1:5 dilution BioRad G250 protein dye:water to the 10 μL of cell lysate sample taken previously, and the OD595 was measured on a 96-well plate reader (Molecular Devices). Data points were normalized to forskolin and the relative protein content were used as positive controls. The EC50 values represent the mean of three or more independent experiments. The EC50 estimates, and their associated standard errors of the mean, were determined by fitting the data to a nonlinear least-squares analysis using the PRISM program (v4.0, GraphPad Inc.).
(§3) The results are tabulated in the form of EC50 values. In the case where the particular receptor was not activated to full activity at 100,000 nM, then the relative activity was reported.

mMC5R = mMC5R (Mus musculus, UniProt P41149); experiment: cAMP based functional bioassay (CRE/β-galactosidase reporter), agonist activity at mMC5R; conditions: for mMC5R Activity @ 10 μM (class) / mMC5R Activity @ 10 μM (relative activity, percent): reported where receptor not activated to full activity
Experimental: as §1, §2, §3

mMC3R = mMC3R (Mus musculus, UniProt P33033); experiment: cAMP based functional bioassay (CRE/β-galactosidase reporter), agonist activity at mMC3R; conditions: for mMC3R Activity @ 10 μM (class) / mMC3R Activity @ 10 μM (relative activity, percent): reported where receptor not activated to full activity
Experimental: as §1, §2, §3

mMC4R = mMC4R (Mus musculus, UniProt P56450); experiment: cAMP based functional bioassay (CRE/β-galactosidase reporter), agonist activity at mMC4R; conditions: for mMC4R Activity @ 10 μM (class) / mMC4R Activity @ 10 μM (relative activity, percent): reported where receptor not activated to full activity
Chain of mMC4R (P56450 whole entry): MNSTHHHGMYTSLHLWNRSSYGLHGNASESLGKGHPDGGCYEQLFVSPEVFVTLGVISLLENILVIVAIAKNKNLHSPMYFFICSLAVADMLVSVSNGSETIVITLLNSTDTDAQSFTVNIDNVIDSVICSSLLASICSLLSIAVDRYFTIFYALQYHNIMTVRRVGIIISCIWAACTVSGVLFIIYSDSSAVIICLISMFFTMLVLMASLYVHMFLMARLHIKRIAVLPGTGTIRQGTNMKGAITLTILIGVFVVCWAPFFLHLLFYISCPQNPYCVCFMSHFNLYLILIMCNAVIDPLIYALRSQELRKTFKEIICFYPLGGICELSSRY
Experimental: as §1, §2, §3

Chain of mMC1R (Q01727 whole entry): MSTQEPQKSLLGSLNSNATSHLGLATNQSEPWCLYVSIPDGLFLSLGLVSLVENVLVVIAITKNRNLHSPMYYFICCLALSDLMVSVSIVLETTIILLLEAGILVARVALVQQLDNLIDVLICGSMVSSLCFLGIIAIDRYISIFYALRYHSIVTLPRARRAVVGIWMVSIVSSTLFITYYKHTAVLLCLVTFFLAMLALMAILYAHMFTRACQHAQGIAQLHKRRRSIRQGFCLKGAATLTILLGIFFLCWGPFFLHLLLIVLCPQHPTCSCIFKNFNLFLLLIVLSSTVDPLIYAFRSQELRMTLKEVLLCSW
Chain of mMC5R (P41149 whole entry): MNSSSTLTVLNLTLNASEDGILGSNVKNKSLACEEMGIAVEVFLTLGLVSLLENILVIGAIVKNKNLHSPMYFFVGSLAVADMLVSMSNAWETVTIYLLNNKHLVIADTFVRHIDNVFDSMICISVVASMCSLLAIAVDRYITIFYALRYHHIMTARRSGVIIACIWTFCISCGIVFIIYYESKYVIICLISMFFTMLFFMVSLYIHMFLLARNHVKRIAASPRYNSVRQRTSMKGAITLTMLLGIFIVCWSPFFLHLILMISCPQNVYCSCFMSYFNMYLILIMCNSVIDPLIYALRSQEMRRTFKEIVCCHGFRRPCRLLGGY
Chain of mMC3R (P33033 whole entry): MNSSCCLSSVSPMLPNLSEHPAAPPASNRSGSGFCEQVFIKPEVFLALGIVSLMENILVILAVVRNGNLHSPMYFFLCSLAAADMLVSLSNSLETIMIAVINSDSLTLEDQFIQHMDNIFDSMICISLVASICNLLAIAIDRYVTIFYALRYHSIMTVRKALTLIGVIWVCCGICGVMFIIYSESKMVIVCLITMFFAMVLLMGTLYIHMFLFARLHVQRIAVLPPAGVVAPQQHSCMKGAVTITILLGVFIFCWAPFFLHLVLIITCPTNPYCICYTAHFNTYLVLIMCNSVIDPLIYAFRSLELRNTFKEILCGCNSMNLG

Row | SMILES | EC50 (mMC1R) | EC50 (mMC5R) | mMC3R Activity @ 10 μM (class) (mMC3R) | mMC3R Activity @ 10 μM (relative activity, percent) (mMC3R) | mMC4R Activity @ 10 μM (class) (mMC4R) | other results
1 | CCC[C@@H]1CN([C@H](Cc2ccccc2)CN2CCC[C@H]2CN2C(=N)NC[C@H]2C(C)C)C(=N)N1CC12CC3CC(CC(C3)C1)C2 [TPI 2509-34, (R)-3-(adamantan-1-ylmethyl)-1-((R)-1-((S)-2-(((R)-2-imino-5-isopropylimidazolidin-1-yl)methyl)pyrrolidin-1-yl)-3-phenylpropan-2-yl)-4-propylimidazolidin-2-imine] | 6.7 ± 4.7 µM | 6.6 ± 5.74 µM |  |  |  | EC50 (mMC3R): 2 ± 0.85 µM; EC50 (mMC4R): 1.4 ± 0.76 µM
2 | CCC[C@@H]1CN([C@H](CC2CCCCC2)CN2CCC[C@H]2CN2C(=N)NC[C@H]2CC(C)C)C(=N)N1CC1CCC(C(C)(C)C)CC1 (stereo partly drawn) [TPI 2509-8, (R)-3-((4-(tert-butyl)cyclohexyl)methyl)-1-((R)-1-cyclohexyl-3-((S)-2-(((R)-2-imino-5-isobutylimidazolidin-1-yl)methyl)pyrrolidin-1-yl)propan-2-yl)-4-propylimidazolidin-2-imine] | 0.5 ± 0.05 µM | 0.53 ± 0.05 µM | B (B: >51%) | 75% | B (B: >51%) | mMC4R Activity @ 10 μM (relative activity, percent) (mMC4R): 65%
3 | CC(C)C[C@@H]1CNC(=N)N1C[C@@H]1CCCN1C[C@@H](CC1CCCCC1)N1C[C@@H](C(C)C)N(CC23CC4CC(CC(C4)C2)C3)C1=N [TPI 2509-10] | 0.57 ± 0.15 µM | 0.5 ± 0.04 µM | B (B: >51%) | 70% | A (A: <50%) | mMC4R Activity @ 10 μM (relative activity, percent) (mMC4R): 50%
4 | CCC[C@@H]1CN([C@H](CC2CCCCC2)CN2CCC[C@H]2CN2C(=N)NC[C@H]2CC(C)C)C(=N)N1CCCC(C)C [TPI 2509-9] | 2.3 ± 0.09 µM | 1.8 ± 0.13 µM | B (B: >51%) | 58% |  | EC50 (mMC4R): 6.7 ± 2.4 µM
5 | CC(C)CCCN1C(=N)N([C@H](Cc2ccccc2)CN2CCC[C@H]2CN2C(=N)NC[C@H]2CC(C)C)C[C@H]1[C@@H](C)O [TPI 2509-15, (R)-1-((S)-2-imino-1-((R)-1-((S)-2-(((R)-2-imino-5-isobutylimidazolidin-1-yl)methyl)pyrrolidin-1-yl)-3-phenylpropan-2-yl)-3-(4-methylpentyl)imidazolidin-4-yl)ethanol] |  |  |  |  |  | mMC1R Activity @ 10 μM (class) (mMC1R): B (B: >51%); mMC1R Activity @ 10 μM (relative activity, percent) (mMC1R): 62%; mMC5R Activity @ 10 μM (class) (mMC5R): B (B: >51%); mMC5R Activity @ 10 μM (relative activity, percent) (mMC5R): 77%
6 | CC(C)C[C@@H]1CNC(=N)N1C[C@@H]1CCCN1C[C@@H](Cc1ccccc1)N1C[C@@H](C(C)C)N(CC23CC4CC(CC(C4)C2)C3)C1=N [TPI 2509-19, (R)-3-(adamantan-1-ylmethyl)-1-((R)-1-((S)-2-(((R)-2-imino-5-isobutylimidazolidin-1-yl)methyl)pyrrolidin-1-yl)-3-phenylpropan-2-yl)-4-isopropylimidazolidin-2-imine] | 15.5 ± 14 µM | 0.44 ± 0.11 µM | B (B: >51%) | 67% |  | EC50 (mMC4R): 8.2 ± 3.55 µM
7 | CC(C)C[C@@H]1CNC(=N)N1C[C@@H]1CCCN1C[C@@H](Cc1ccccc1)N1C[C@@H](C(C)C)N(CC2CCC(C(C)(C)C)CC2)C1=N (stereo partly drawn) [TPI 2509-20, (R)-3-((4-(tert-butyl)cyclohexyl)methyl)-1-((R)-1-((S)-2-(((R)-2-imino-5-isobutylimidazolidin-1-yl)methyl)pyrrolidin-1-yl)-3-phenylpropan-2-yl)-4-isopropylimidazolidin-2-imine] | 6.8 ± 0.6 µM | 0.56 ± 0.17 µM | B (B: >51%) | 62% |  | 
8 | CC(C)[C@@H]1CNC(=N)N1C[C@@H]1CCCN1C[C@@H](CC1CCCCC1)N1C[C@@H](C(C)C)N(CC23CC4CC(CC(C4)C2)C3)C1=N [TPI 2509-28, (R)-3-(adamantan-1-ylmethyl)-1-((R)-1-cyclohexyl-3-((S)-2-(((R)-2-imino-5-isopropylimidazolidin-1-yl)methyl)pyrrolidin-1-yl)propan-2-yl)-4-isopropylimidazolidin-2-imine] | 0.3 ± 0.03 µM | 0.58 ± 0.16 µM |  |  | A (A: <50%) | EC50 (mMC3R): 3.7 ± 0.88 µM; mMC4R Activity @ 10 μM (relative activity, percent) (mMC4R): 40%
9 | CCC[C@@H]1CN([C@H](Cc2ccccc2)CN2CCC[C@H]2CN2C(=N)NC[C@H]2CC(C)C)C(=N)N1CC12CC3CC(CC(C3)C1)C2 [TPI 2509-16, (R)-3-(adamantan-1-ylmethyl)-1-((R)-1-((S)-2-(((R)-2-imino-5-isobutylimidazolidin-1-yl)methyl)pyrrolidin-1-yl)-3-phenylpropan-2-yl)-4-propylimidazolidin-2-imine] | 7 ± 6.1 µM | 0.61 ± 0.16 µM | B (B: >51%) | 74% |  | EC50 (mMC4R): 1.33 ± 0.51 µM
10 | CC(C)[C@@H]1CNC(=N)N1C[C@@H]1CCCN1C[C@@H](Cc1ccccc1)N1C[C@@H](C(C)C)N(CC2CCC(C(C)(C)C)CC2)C1=N (stereo partly drawn) [TPI 2509-38, (R)-3-((4-(tert-butyl)cyclohexyl)methyl)-1-((R)-1-((S)-2-(((R)-2-imino-5-isopropylimidazolidin-1-yl)methyl)pyrrolidin-1-yl)-3-phenylpropan-2-yl)-4-isopropylimidazolidin-2-imine] | 29.1 ± 20 µM | 0.6 ± 0.17 µM | B (B: >51%) | 68% |  | 
11 | CCC[C@@H]1CN([C@H](Cc2ccccc2)CN2CCC[C@H]2CN2C(=N)NC[C@H]2CC(C)C)C(=N)N1CCCC(C)C [TPI 2509-18, (R)-1-((R)-1-((S)-2-(((R)-2-imino-5-isobutylimidazolidin-1-yl)methyl)pyrrolidin-1-yl)-3-phenylpropan-2-yl)-3-(4-methylpentyl)-4-propylimidazolidin-2-imine] |  | 2.18 ± 0.625 µM |  |  | B (B: >51%) | 
12 | CC(C)CCCN1C(=N)N([C@H](CC2CCCCC2)CN2CCC[C@H]2CN2C(=N)NC[C@H]2C(C)C)C[C@H]1[C@@H](C)O [TPI 2509-24, (R)-1-((S)-1-((R)-1-cyclohexyl-3-((S)-2-(((R)-2-imino-5-isopropylimidazolidin-1-yl)methyl)pyrrolidin-1-yl)propan-2-yl)-2-imino-3-(4-methylpentyl)imidazolidin-4-yl)ethanol] | 0.7 ± 0.08 µM | 0.74 ± 0.27 µM |  |  |  | EC50 (mMC3R): 5.2 ± 1.54 µM
13 | CC(C)CCCN1C(=N)N([C@H](Cc2ccccc2)CN2CCC[C@H]2CN2C(=N)NC[C@H]2CC(C)C)C[C@H]1C(C)C [TPI 2509-21, (R)-1-((R)-1-((S)-2-(((R)-2-imino-5-isobutylimidazolidin-1-yl)methyl)pyrrolidin-1-yl)-3-phenylpropan-2-yl)-4-isopropyl-3-(4-methylpentyl)imidazolidin-2-imine] |  | 1.26 ± 0.13 µM | A (A: <50%) |  | A (A: <50%) | 
14 | CC(=O)N[C@@H](Cc1c[nH]cn1)C(=O)N[C@H](Cc1ccccc1)C(=O)N[C@@H](CCCNC(=N)N)C(=O)N[C@@H](Cc1c[nH]c2ccccc12)C(N)=O [Ac-His-DPhe-Arg-Trp-NH2, reference compound] |  |  |  |  |  | EC50 (mMC5R; read-out: mMC5R Mean ± SEM (agonist EC50), HEK-293 cells, mean of three or more experiments): 0.0042 ± 0.001 µM; EC50 (mMC4R; read-out: mMC4R Mean ± SEM (agonist EC50), HEK-293 cells, mean of three or more experiments): 0.0055 ± 0.0008 µM
15 | CC(C)CCCN1C(=N)N([C@H](Cc2ccccc2)CN2CCC[C@H]2CN2C(=N)NC[C@H]2C(C)C)C[C@H]1C(C)C [TPI 2509-39, (R)-1-((R)-1-((S)-2-(((R)-2-imino-5-isopropylimidazolidin-1-yl)methyl)pyrrolidin-1-yl)-3-phenylpropan-2-yl)-4-isopropyl-3-(4-methylpentyl)imidazolidin-2-imine] | 10.2 ± 6.57 µM | 1.6 ± 0.46 µM |  |  | A (A: <50%) | mMC4R Activity @ 10 μM (relative activity, percent) (mMC4R): 21%
16 | CC(C)C[C@@H]1CNC(=N)N1C[C@@H]1CCCN1C[C@@H](CC1CCCCC1)N1C[C@@H](C(C)C)N(CC2CCC(C(C)(C)C)CC2)C1=N (stereo partly drawn) [TPI 2509-11, (R)-3-((4-(tert-butyl)cyclohexyl)methyl)-1-((R)-1-cyclohexyl-3-((S)-2-(((R)-2-imino-5-isobutylimidazolidin-1-yl)methyl)pyrrolidin-1-yl)propan-2-yl)-4-isopropylimidazolidin-2-imine] |  | 0.56 ± 0.05 µM | B (B: >51%) | 69% |  | mMC1R Activity @ 10 μM (class) (mMC1R): B (B: >51%); mMC1R Activity @ 10 μM (relative activity, percent) (mMC1R): 54%
17 | CCC[C@@H]1CN([C@H](Cc2ccccc2)CN2CCC[C@H]2CN2C(=N)NC[C@H]2C(C)C)C(=N)N1CCCC(C)C [TPI 2509-36, (R)-1-((R)-1-((S)-2-(((R)-2-imino-5-isopropylimidazolidin-1-yl)methyl)pyrrolidin-1-yl)-3-phenylpropan-2-yl)-3-(4-methylpentyl)-4-propylimidazolidin-2-imine] | 22.9 ± 10 µM | 2.03 ± 0.98 µM |  |  | A (A: <50%) | mMC4R Activity @ 10 μM (relative activity, percent) (mMC4R): 41%
18 | CC(C)CCCN1C(=N)N([C@H](Cc2ccccc2)CN2CCC[C@H]2CN2C(=N)NC[C@H]2C(C)C)C[C@H]1[C@@H](C)O [TPI 2509-33, (R)-1-((S)-2-imino-1-((R)-1-((S)-2-(((R)-2-imino-5-isopropylimidazolidin-1-yl)methyl)pyrrolidin-1-yl)-3-phenylpropan-2-yl)-3-(4-methylpentyl)imidazolidin-4-yl)ethanol] |  |  |  |  |  | mMC1R Activity @ 10 μM (class) (mMC1R): B (B: >51%); mMC5R Activity @ 10 μM (class) (mMC5R): A (A: <50%); mMC5R Activity @ 10 μM (relative activity, percent) (mMC5R): 40%
